Measured values as given in patent publication US11021493B2, “1,4-thiazine dioxide and 1,2,4-thiadiazine dioxide derivatives as beta-secretase inhibitors and methods of use” (AMGEN INC., priority 2016, dated 2021).
pIC50: −log10 of the molar value.

Assays:
[1] = higher compound dose given for three months; cited from earlier work
BACE1 [2] = target: T1, BACE1 (Homo sapiens (Human), UniProt P56817); test: In vitro enzymatic BACE1 FRET assay; format: biochemical; conditions: read-out: BACE1 Enzyme IC50
Target sequence in this assay (P56817 46-501): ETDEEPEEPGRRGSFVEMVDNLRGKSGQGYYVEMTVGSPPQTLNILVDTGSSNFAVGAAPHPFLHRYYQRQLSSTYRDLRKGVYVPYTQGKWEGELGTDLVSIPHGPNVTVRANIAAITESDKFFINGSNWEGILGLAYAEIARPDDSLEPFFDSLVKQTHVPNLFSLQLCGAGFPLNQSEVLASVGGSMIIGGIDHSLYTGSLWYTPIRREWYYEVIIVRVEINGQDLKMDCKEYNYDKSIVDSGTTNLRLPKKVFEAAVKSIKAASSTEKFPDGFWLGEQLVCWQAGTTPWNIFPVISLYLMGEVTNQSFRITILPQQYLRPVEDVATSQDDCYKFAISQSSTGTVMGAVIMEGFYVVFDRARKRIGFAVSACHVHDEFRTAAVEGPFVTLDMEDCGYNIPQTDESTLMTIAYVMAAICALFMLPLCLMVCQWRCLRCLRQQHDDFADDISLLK

BACE1 [3] = target: T1, BACE1; test: In vitro BACE1 cell-based assay (Aβ40 in conditioned medium of cells stably expressing APP, HTRF); conditions: Aβ40 in conditioned media after 24 h incubation
Target sequence in this assay (P56817 46-501, species assumed): as the sequence (P56817 46-501) above

human recombinant BACE2 = human recombinant BACE2 (Homo sapiens (Human), UniProt Q9Y5Z0); test: In vitro enzymatic BACE2 FRET assay; format: biochemical; conditions: read-out: BACE2 Enzyme IC50
Cathepsin D (CatD) = Cathepsin D (CatD) (Homo sapiens (Human), UniProt P07339); test: In vitro enzymatic Cathepsin D (CatD) FRET assay; format: biochemical; conditions: read-out: Cat D Enzyme IC50
β-secretase = β-secretase (Rattus norvegicus (Rat), UniProt P56819); test: In vivo inhibition of β-secretase: Aβ reduction in rat CSF and brain
Method: In Vivo Inhibition of β-Secretase
Animals to be used in this experiment can be wild type, transgenic, or gene knockout animals.
A separate group of animals receive 2% hydroxypropyl methylcellulose, 1% Tween80 alone, containing no test compound, and serve as a vehicle-control group. At the end of the test period, animals are sacrificed and brain tissues, plasma or cerebrospinal fluid are collected. […] Homogenates are centrifuged at 355,000 g, 4° C. for 30 minutes. CSF or brain supernatants are then analyzed for the presence of Aβ by specific sandwich ELISA assays based on ECL (Electrochemiluminescence) technology. For example, rat Aβ40 is measured using biotinylated-4G8 (Signet) as a capture antibody and Fab40 (an in-house antibody specific to the C-terminal of Aβ40) as a detection antibody.

[4] = cited from earlier work
BACE = conditions: nonhuman primates; cited from earlier work

Sequence of β-secretase (P56819 46-501): as the sequence (P56817 46-501) above, with G82S, V162I, L165I, S180T, V182A, I340V, L393A, Q443H counted along it
Sequence of Cathepsin D (CatD) (P07339 65-412, species assumed): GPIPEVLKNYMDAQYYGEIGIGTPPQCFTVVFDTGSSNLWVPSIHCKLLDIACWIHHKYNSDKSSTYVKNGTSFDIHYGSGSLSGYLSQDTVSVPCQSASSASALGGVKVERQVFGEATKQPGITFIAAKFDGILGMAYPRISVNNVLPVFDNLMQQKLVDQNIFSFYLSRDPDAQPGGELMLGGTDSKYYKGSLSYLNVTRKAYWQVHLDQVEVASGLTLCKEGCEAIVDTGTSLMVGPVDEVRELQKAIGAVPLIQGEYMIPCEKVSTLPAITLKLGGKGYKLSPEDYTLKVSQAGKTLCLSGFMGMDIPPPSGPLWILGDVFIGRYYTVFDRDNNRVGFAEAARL
Sequence of human recombinant BACE2 (Q9Y5Z0 63-518): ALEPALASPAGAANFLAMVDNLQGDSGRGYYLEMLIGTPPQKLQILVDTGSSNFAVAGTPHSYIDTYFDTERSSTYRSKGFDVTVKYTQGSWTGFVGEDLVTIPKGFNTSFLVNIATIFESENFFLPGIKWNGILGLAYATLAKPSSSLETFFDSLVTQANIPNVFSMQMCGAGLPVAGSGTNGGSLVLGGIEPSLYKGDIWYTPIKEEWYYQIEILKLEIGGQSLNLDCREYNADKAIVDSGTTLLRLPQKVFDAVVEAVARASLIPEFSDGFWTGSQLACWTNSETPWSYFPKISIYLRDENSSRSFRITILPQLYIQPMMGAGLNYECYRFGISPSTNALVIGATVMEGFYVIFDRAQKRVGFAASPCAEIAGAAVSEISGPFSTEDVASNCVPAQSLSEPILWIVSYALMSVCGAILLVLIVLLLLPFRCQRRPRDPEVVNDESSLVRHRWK

SMILES: C[C@@]1(c2cc(-c3cncnc3)c(F)cc2F)CCSC(N)=N1 [LY 2811376]
- eye toxicity [1]: damaged the pigment epithelium of the rat's eye

SMILES: CN1C(N)=N[C@](C)(c2cc(/C=C(\F)c3ccc(C#N)cn3)ccc2F)C2(CC2)S1(=O)=O [Example 127, (R,Z)-6-(2-(3-(6-amino-5,8-dimethyl-4,4-dioxido-4-thia-5,7-diazaspiro[2.5]oct-6-en-8-yl)-4-fluorophenyl)-1-fluorovinyl)nicotinonitrile]
- pIC50 (BACE1 [2]): 8.22
- pIC50 (BACE1 [3]): 8.10
- pIC50 (human recombinant BACE2): 6.76
- pIC50 (Cathepsin D (CatD)): 3.89
- % Aβ reduction in rat CSF at 10 mpk (β-secretase): 64%
- % Aβ reduction in rat brain at 10 mpk (β-secretase): 70%

SMILES: CN1C(=N)N[C@](C)(c2cc(NC(=O)c3ccc(F)cn3)ccc2F)CS1(=O)=O [MK-8931]
- safety profile ([4]; phase I clinical trials): no immediately noticeable side effects

SMILES: C#CCOc1cnc(/C(F)=C/c2cc(F)c(F)c([C@]3(C)CS(=O)(=O)C(C)(C)C(N)=N3)c2)cn1 [Example 204, (R,Z)-5-amino-3-(2,3-difluoro-5-(2-fluoro-2-(5-(prop-2-yn-1-yloxy)pyrazin-2-yl)vinyl)phenyl)-3,6,6-trimethyl-3,6-dihydro-2H-1,4-thiazine 1,1-dioxide]
- pIC50 (BACE1 [2]): 8.30
- pIC50 (BACE1 [3]): 8.05
- pIC50 (human recombinant BACE2): 6.75
- pIC50 (Cathepsin D (CatD)): 4.37
- % Aβ reduction in rat CSF at 10 mpk (β-secretase): 65%
- % Aβ reduction in rat brain at 10 mpk (β-secretase): 61%

SMILES: C#C[C@H](C)Oc1cnc(/C(F)=C/c2ccc(F)c([C@@]3(C)N=C(N)[C@@]4(CF)CC[C@@H]3S4(=O)=O)c2)cn1 [Example 128, (1R,4R,5S)-2-amino-4-(5-((Z)-2-(5-((S)-but-3-yn-2-yloxy)pyrazin-2-yl)-2-fluorovinyl)-2-fluorophenyl)-1-(fluoromethyl)-4-methyl-8-thia-3-azabicyclo[3.2.1]oct-2-ene 8,8-dioxide]
- pIC50 (BACE1 [2]): 8.40
- pIC50 (BACE1 [3]): 7.74
- pIC50 (human recombinant BACE2): 6.83
- pIC50 (Cathepsin D (CatD)): 3.90
- % Aβ reduction in rat CSF at 10 mpk (β-secretase): 33%
- % Aβ reduction in rat brain at 10 mpk (β-secretase): 35%

SMILES: Cc1noc(COc2cnc(/C(F)=C/c3ccc(F)c([C@]4(C)CS(=O)(=O)N(C)C(N)=N4)c3)cn2)n1 [Example 146, (R,Z)-3-amino-5-(2-fluoro-5-(2-fluoro-2-(5-((3-methyl-1,2,4-oxadiazol-5-yl)methoxy)pyrazin-2-yl)vinyl)phenyl)-2,5-dimethyl-5,6-dihydro-2H-1,2,4-thiadiazine 1,1-dioxide]
- pIC50 (BACE1 [2]): 8.52
- pIC50 (BACE1 [3]): 8.22
- pIC50 (human recombinant BACE2): 7.01
- pIC50 (Cathepsin D (CatD)): 3.82
- % Aβ reduction in rat CSF at 10 mpk (β-secretase): 12%
- % Aβ reduction in rat brain at 10 mpk (β-secretase): 16%

SMILES: C[C@H]1OC[C@]2(c3cc(NC(=O)c4cnc(C(F)F)cn4)ccc3F)N=C(N)SC[C@H]12 [Example E2609]
- Aβ peptide levels in the CSF and plasma (BACE): significant reduction
- clinical safety ([4]; repeated doses up to 200 mg, phase I clinical trial): did not show clinical significant safety concerns

SMILES: CC1(C)C(N)=N[C@@]2(c3ccc(/C=C(\F)c4ccc(C#N)cn4)cc3F)COC[C@H]2S1(=O)=O [Example 261, 6-((Z)-2-(4-((4aS,7aS)-3-amino-2,2-dimethyl-1,1-dioxido-4a,5,7,7a-tetrahydro-2H-furo[3,4-b][1,4]thiazin-4a-yl)-3-fluorophenyl)-1-fluorovinyl)nicotinonitrile]
- pIC50 (BACE1 [2]): 8.70
- pIC50 (BACE1 [3]): 7.47
- pIC50 (human recombinant BACE2): 7.92
- pIC50 (Cathepsin D (CatD)): 3.75
- % Aβ reduction in rat CSF at 10 mpk (β-secretase): 69%
- % Aβ reduction in rat brain at 10 mpk (β-secretase): 60%

SMILES: CN1C(N)=N[C@](C)(c2cc(/C=C(\F)c3cnc(OCc4ncco4)cn3)cc(F)c2F)CS1(=O)=O [Example 166, (R,Z)-3-amino-5-(2,3-difluoro-5-(2-fluoro-2-(5-(oxazol-2-ylmethoxy)pyrazin-2-yl)vinyl)phenyl)-2,5-dimethyl-5,6-dihydro-2H-1,2,4-thiadiazine 1,1-dioxide]
- pIC50 (BACE1 [2]): 8.40
- pIC50 (BACE1 [3]): 8.40
- pIC50 (human recombinant BACE2): 7.05
- pIC50 (Cathepsin D (CatD)): 4.39
- % Aβ reduction in rat CSF at 10 mpk (β-secretase): 45%
- % Aβ reduction in rat brain at 10 mpk (β-secretase): 26%

SMILES: C#C[C@H](C)Oc1cnc(/C(F)=C/c2ccc(F)c([C@]3(C)CS(=O)(=O)C(C)(C)C(N)=N3)c2)cn1 [Example 160, (R)-5-amino-3-(5-((Z)-2-(5-((S)-but-3-yn-2-yloxy)pyrazin-2-yl)-2-fluorovinyl)-2-fluorophenyl)-3,6,6-trimethyl-3,6-dihydro-2H-1,4-thiazine 1,1-dioxide]
- pIC50 (BACE1 [2]): 9.00
- pIC50 (BACE1 [3]): 8.30
- pIC50 (human recombinant BACE2): 6.92
- pIC50 (Cathepsin D (CatD)): 3.68
- % Aβ reduction in rat CSF at 10 mpk (β-secretase): 52%
- % Aβ reduction in rat brain at 10 mpk (β-secretase): 34%

SMILES: C#C[C@H](C)Oc1cnc(/C(F)=C/c2ccc(F)c([C@@]3(C)N=C(N)N(C)S(=O)(=O)C3(C)C)c2)cn1 [Example 186, (R)-3-amino-5-(5-((Z)-2-(5-((S)-but-3-yn-2-yloxy)pyrazin-2-yl)-2-fluorovinyl)-2-fluorophenyl)-2,5,6,6-tetramethyl-5,6-dihydro-2H-1,2,4-thiadiazine 1,1-dioxide]
- pIC50 (BACE1 [2]): 8.30
- pIC50 (BACE1 [3]): 7.62
- pIC50 (human recombinant BACE2): 6.35
- pIC50 (Cathepsin D (CatD)): 3.43
- % Aβ reduction in rat CSF at 10 mpk (β-secretase): 19%
- % Aβ reduction in rat brain at 10 mpk (β-secretase): 43%
